Test results taken from patent US20210285024A1, “In vitro Screening Assay of TCPase Modulators” (CENTRE NATIONAL DE LA RECHERCHE SCIENTIFIQUE (CNRS), priority 2018, published 2021).

Tests used:
SVBP-VASH2 complex = SVBP-VASH2 complex (Homo sapiens, UniProt Q86V25); assay: Detyrosination assay using tubulin purified from Sf9 cells and recombinant SVBP-VASH2 complex; details: 0.1 μM and 10 μM; 15 min at 37° C.; microtubules from Sf9 tubulin; western blot
Description: FIG. 17: Detyrosination assay performed using tubulin purified from Sf9 cells and recombinant SVBP-VASH2 complex in absence or presence of putative inhibitors of detyrosinase. […] FIG. 17b: Western blot. FIG. 17c: Representation of relative optical density (detyrosination/tubulin).
A negative control sample consisting of the tubulin in the reaction buffer in absence of the detyrosinase (SVBP-VASH2 complex) was also analysed by western blotting (FIG. 17b).

[1] = tested on: HEK293T cells deficient for VASH1 and VASH2; details: Nieuwenhuis et al., 2017; cited from earlier work

SVBP-VASH2 complex, sequence (Q86V25 whole entry): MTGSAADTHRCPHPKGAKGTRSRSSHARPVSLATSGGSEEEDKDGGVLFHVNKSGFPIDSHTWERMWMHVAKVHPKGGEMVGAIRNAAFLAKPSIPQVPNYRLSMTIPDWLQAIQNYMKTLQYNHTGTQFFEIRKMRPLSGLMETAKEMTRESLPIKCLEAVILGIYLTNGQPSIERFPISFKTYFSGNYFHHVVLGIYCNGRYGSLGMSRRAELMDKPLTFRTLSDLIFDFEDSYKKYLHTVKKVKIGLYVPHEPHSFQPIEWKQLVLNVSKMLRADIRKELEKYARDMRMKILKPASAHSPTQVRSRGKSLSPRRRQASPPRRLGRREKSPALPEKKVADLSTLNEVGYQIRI
SVBP-VASH2 complex, sequence (Q8N300 whole entry partner): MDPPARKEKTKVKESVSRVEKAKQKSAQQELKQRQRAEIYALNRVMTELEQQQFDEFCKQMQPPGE

Row | SMILES | reduction of the detyrosinating activity of SVBP-VASH2 complex (SVBP-VASH2 complex) | alpha-tubulin detyrosination [1]
1 | C=C1C(=O)O[C@@H]2C[C@@]3(C)CCC[C@H](C)C3=C[C@H]12 [alantolactone, Alantolactone] | did not result in any significant reduction | –
2 | C=C1C(=O)O[C@@H]2/C=C(\C)CC/C=C(\C)CC[C@@H]12 [costunolide, Costunolide] | did not result in any significant reduction | –
3 | CC(=O)O[C@H]1C(=O)[C@@]2(C)[C@H]([C@H](OC(=O)c3ccccc3)[C@]3(O)C[C@H](OC(=O)[C@H](O)[C@@H](NC(=O)c4ccccc4)c4ccccc4)C(C)=C1C3(C)C)[C@]1(OC(C)=O)CO[C@@H]1C[C@@H]2O [Taxol, paclitaxel] | – | robust increase
